Values quoted from earlier work, collected in patent publication US9374996B2, “Agroformulation comprising copolymer of acrylic acid, poly(alkylene glycol) (meth)acrylate, and alkyl (meth)acrylate” (priority 2012, dated 2016).
≈ marks a conversion by molar mass, not a printed value.

Settings: at 20° C.

For `Cn1cc(C(=O)Nc2ccccc2-c2cc(F)c(F)c(F)c2)c(C(F)F)n1` [fluxapyroxad], the solubility in water is listed as 3.88 µg/mL (≈ 10.2 µM).
